experiment: Amount in a composition achieving the characteristic cooling effect of menthol; assay type: in vivo; settings: amount present in a composition; equivalent amounts relative to menthol
Text: For purposes of achieving the characteristic “cooling effect” of menthol, an equivalent amount of another compound sufficient to impart the characteristic “cooling effect” of menthol is about 50 ppm, preferably about 100 ppm or even 200 or 300 ppm of menthyl lactate, about 20 ppm, preferably about 40 ppm or even 50 or 75 ppm of monomenthyl succinate, and about 0.01 ppm, preferably about 0. 1 ppm or even 0.3 or 0.5 ppm of isopulegol. Using these relative conversions, one of ordinary skill in the art may readily substitute one or more compounds to achieve the relative “cooling effect” of menthol.

Row | Compound | amount sufficient to impart the characteristic cooling effect of menthol
1 | C=C(C)[C@@H]1CC[C@@H](C)C[C@H]1O [isopulegol] | about 0.01 ppm
2 | CC1CCC(C(C)C)C(O)C1 (stereo not drawn) [menthol] | ≥ 25 ppm
3 | CC1CCC(C(C)C)C(OC(=O)C(C)O)C1 (stereo not drawn) [menthyl lactate] | about 50 ppm
4 | CC(C)[C@@H]1CC[C@@H](C)C[C@H]1OC(=O)CCC(=O)O [monomenthyl succinate] | about 20 ppm

experiment: Amount in a composition achieving the characteristic nasal action of menthol; assay type: in vivo; settings: amount present in a composition; equivalent amounts relative to menthol
Text: For purposes of achieving the characteristic “nasal action” of menthol, an equivalent amount of another compound sufficient to impart the characteristic “nasal action” of menthol is about 0.5 ppm, preferably about 1 ppm or even 2 or 3 ppm of methone, about 0.5 ppm, preferably about 1 ppm or even 2 or 3 ppm of isomethone, about 0.1 ppm, preferably about 0.2 ppm or even 0.3 or 0.5 ppm of eucalyptol, and about 10 ppm, preferably about 20 ppm or even 30 or 50 ppm of camphor. Using these relative conversions, one of ordinary skill in the art may readily substitute one or more compounds to achieve the relative “nasal action” of menthol.

Row | Compound | amount sufficient to impart the characteristic nasal action of menthol
5 | CC12CCC(CC1=O)C2(C)C (stereo not drawn) [camphor] | about 10 ppm
6 | CC12CCC(CC1)C(C)(C)O2 [eucalyptol] | about 0.1 ppm
7 | CC(C)[C@@H]1CC[C@H](C)CC1=O [isomethone, isomenthone] | about 0.5 ppm
8 | CC1CCC(C(C)C)C(O)C1 (stereo not drawn) [menthol] | ≥ 3 ppm
9 | CC(C)[C@@H]1CC[C@@H](C)CC1=O [methone, menthone] | about 0.5 ppm

From US20070148283A1, “Compositions providing a sensation substantially similar to that provided by menthol” (Cadbury Adams USA LLC, priority 2005, published 2007)
